Measurements taken from patent US12122778B2, “Activating pyruvate kinase R” (Novo Nordisk Health Care AG, priority 2018, dated 2024).
Read-outs that look alike come from different tables or passages of the source.

Assays:
[1] = molecular target: PKR(wt) (Homo sapiens, UniProt P30613); assay: Luminescence Biochemical Assay (Kinase Glo Plus), wild type PKR; conditions: without FBP; for activation at 1.54 µM: 1.54 μM compound, read-out: AC50 LUM KGP woFBP % Fold@1.54 μM mean; for AC50: read-out: AC50 LUM KGP woFBP AC50 μM gmean; for Emax: read-out: AC50 LUM KGP woFBP MAX % FOLD mean
[2] = molecular target: PKR(R510Q) (Homo sapiens, UniProt P30613, R510Q); assay: Luminescence Biochemical Assay (Kinase Glo Plus), PKR R510Q mutant; conditions: without FBP; for activation at 1.54 µM: 1.54 μM compound, read-out: AC50 LUM KGP woFBP % Fold@1.54 μM mean; for Emax: read-out: AC50 LUM KGP woFBP MAX % FOLD mean
[3] = molecular target: PKR(G332S) (Homo sapiens, UniProt P30613, G332S); assay: Luminescence Biochemical Assay (Kinase Glo Plus), PKR G332S mutant; conditions: with FBP; for activation at 1.54 µM: 1.54 μM compound, read-out: AC50 LUM KGP FBP % Fold@1.54 μM mean; for Emax: read-out: AC50 LUM KGP FBP MAX % FOLD mean
Description: In some embodiments, a PKR Activating Compound can have: (1) an AC50 value of less than 0.1 μM (e.g., compounds with AC50 values of “+++” in Table 13), 0.1-1.0 μM (e.g., compounds with AC50 values of “++” in Table 13), or 1.01-40 μM (e.g., compounds with AC50 values of “+” in Table 13); (2) a MAX % Fold of 75%-250%, 250-500%, or 75%-500%; and/or (3) a % Fold@1.54 μM of 75%-250%, 250-500%, or 75%-500%. In some embodiments, a PKR Activating Compound has (1) an AC50 value of less than 1.0 μM; (2) a MAX % Fold of 75%-500%; and/or (3) a % Fold@1.54 μM of 75%-500%.
The phosphorylation of Adenosine-5′-diphosphate (ADP) by various mutants of PKR was determined by the Kinase Glo Plus Assay (Promega) in the presence or absence of FBP [D-Fructose-1,6-diphosphate; BOC Sciences, CAS: 81028-91-3] as follows. Unless otherwise indicated, all reagents were purchased from Sigma-Aldrich. All reagents were prepared in buffer containing 50 mM Tris-HCl, 100 mM KCl, 5 mM MgCl2, and 0.01% Triton X100, 0.03% BSA, and 1 mM DTT. Enzyme and PEP [Phospho(enol) pyruvic acid] were added at 2× to all wells of an assay-ready plate containing serial dilutions of test compounds or DMSO vehicle. Final enzyme concentrations for PKR(wt), PKR(R510Q), and PKR(G332S) were 0.8 nM, 0.8 nM, and 10 nM respectively. Final PEP concentration was 100 μM. The Enzyme/PEP mixture was incubated with compounds for 30 minutes at RT before the assay was initiated with the addition of 2×ADP [Adenosine-5′-diphosphate] and KinaseGloPlus. Final concentration of ADP was 100 μM. […] For assays containing FBP, that reagent is added at 30 μM upon reaction initiation. Reactions were allowed to progress for 45 minutes at RT until luminescence was recorded by the BMG PHERAstar FS Multilabel Reader. All compounds were tested in triplicate at concentrations ranging from 42.5 μM to 2.2 nM in 0.83% DMSO.
Luminescence values were converted to % Fold increase by normalizing to the average of the DMSO control and multiplying by 100. Max, min, slope and AC50 were determined by the standard four parameter fit algorithm of ActivityBase XE Runner. Compounds were evaluated with three parameters—AC50, MAX % Fold, and % Fold@1.54 μM (FIG. 1). The AC50 value for a compound is the concentration (μM) corresponding to the midway between the maximum and minimum values of the four parameter logistic curve fit (i.e., at which the % fold increase along the four parameter logistic curve fit is halfway between MAX % Fold and MIN % Fold (% Fold Midpoint)), MAX % Fold is the highest fold increase observed at any concentration of compound, and % Fold@1.54 μM is the fold increase at a compound concentration of 1.54 μM. The parameter % Fold@1.54 μM was selected to capture elements of both the AC50 and MAX % Fold and to provide a ranking based on both potency and effect. The compound concentration of 1.54 μM was chosen as one that can optimally differentiate the set of compounds based on the range of activities observed.
As set forth in Table 13 below, AC50 values (columns A, D, G) are defined as follows: ≤0.1 μM (+++); >0.1 μM and ≤1.0 μM (++); >1.0 μM and ≤40 μM (+); >40 μM (0). Max % FOLD values (columns B, E, H) are defined as follows: ≤75% (+); >75% and ≤250% (++); >250% and ≤500% (+++). % Fold@1.54 μM values (columns C, F, J) are defined as follows: ≤75% (+); >75% and ≤250% (++); >250% and ≤50000 (+++).

[4] = read-out: AC50 LUM KGP woFBP AC50 μM gmean
[5] = read-out: AC50 LUM KGP FBP AC50 μM gmean (column A)

Chain of PKR(R510Q) (P30613 whole entry R510Q): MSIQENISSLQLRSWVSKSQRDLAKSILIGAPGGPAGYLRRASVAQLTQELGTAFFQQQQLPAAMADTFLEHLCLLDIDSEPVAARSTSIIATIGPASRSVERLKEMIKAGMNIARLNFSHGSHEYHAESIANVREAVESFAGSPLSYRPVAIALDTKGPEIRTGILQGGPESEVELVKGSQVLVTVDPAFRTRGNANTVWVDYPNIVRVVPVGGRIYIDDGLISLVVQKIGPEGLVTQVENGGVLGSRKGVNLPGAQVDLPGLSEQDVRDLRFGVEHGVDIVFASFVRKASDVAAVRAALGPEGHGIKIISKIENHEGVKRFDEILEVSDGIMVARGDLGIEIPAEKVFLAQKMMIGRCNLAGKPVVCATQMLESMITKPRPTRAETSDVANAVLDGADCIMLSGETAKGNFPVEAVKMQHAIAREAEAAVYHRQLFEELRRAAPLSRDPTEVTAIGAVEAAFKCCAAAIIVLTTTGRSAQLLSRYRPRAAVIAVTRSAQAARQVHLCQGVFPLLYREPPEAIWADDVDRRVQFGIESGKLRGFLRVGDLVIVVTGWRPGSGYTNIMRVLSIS
Chain of PKR(G332S) (P30613 whole entry G332S): as the sequence (P30613 whole entry R510Q) above, with G332S, Q510R counted along it
Chain of PKR(wt) (P30613 whole entry): as the sequence (P30613 whole entry R510Q) above, with Q510R counted along it

Row | SMILES | activation at 1.54 µM [1] [%] | AC50 [1] [µM] | Emax [1] [%] | activation at 1.54 µM [2] [%] | AC50 [2, 4] [µM] | Emax [2] [%] | activation at 1.54 µM [3] [%] | AC50 [3, 5] [µM] | Emax [3] [%] | AC50 ([2]; gmean, read-out: D - AC50 LUM KGP woFBP AC50 μM gmean) [µM] | AC50 ([3]; gmean, read-out: A - AC50 LUM KGP FBP AC50 μM gmean) [µM]
1 | O=C([C@@H](O)c1ccccn1)N1CC2=C(C1)CN(S(=O)(=O)c1ccc(OC(F)F)cc1)C2 (single isomer, unassigned) [Example 8-3] | 250 to 50000 | 0.1 to 1 | 250 to 500 | 250 to 50000 | 0.1 to 1 | 250 to 500 | 75 to 250 | 0.1 to 1 | 75 to 250 |  | 
2 | O=C([C@H](O)c1ccc2c(c1)NCCO2)N1CC2=C(C1)CN(S(=O)(=O)c1ccc(OC(F)F)cc1)C2 (single isomer, unassigned) [Example 9-4] | 75 to 250 | 1 to 40 | 250 to 500 | 75 to 250 | 1 to 40 | 250 to 500 | 75 to 250 | 0.1 to 1 | 75 to 250 |  | 
3 | O=C([C@@H](O)c1ccc2c(c1)NCCO2)N1CC2=C(C1)CN(S(=O)(=O)c1ccc(OC(F)F)cc1)C2 (single isomer, unassigned) [Example 9-5] | 250 to 50000 | ≤ 0.1 | 250 to 500 | 250 to 50000 | ≤ 0.1 | 250 to 500 | 75 to 250 | ≤ 0.1 | 75 to 250 |  | 
4 | CN1CCOc2ccc([C@@H](O)C(=O)N3CC4=C(C3)CN(S(=O)(=O)c3ccc(OC(F)F)cc3)C4)cc21 (single isomer, unassigned) [Example 10-1] | 75 to 250 | 1 to 40 | 250 to 500 | 75 to 250 | 1 to 40 | 250 to 500 | 75 to 250 | 0.1 to 1 | 75 to 250 |  | 
5 | CN1CCOc2ccc([C@H](O)C(=O)N3CC4=C(C3)CN(S(=O)(=O)c3ccc(OC(F)F)cc3)C4)cc21 (single isomer, unassigned) [Example 10-2] | 250 to 50000 | ≤ 0.1 | 250 to 500 | 250 to 50000 | 0.1 to 1 | 250 to 500 | 75 to 250 | ≤ 0.1 | 75 to 250 |  | 
6 | O=C([C@@H](O)c1ccc2c(c1)CNCC2)N1CC2=C(C1)CN(S(=O)(=O)c1ccc(OC(F)F)cc1)C2 (single isomer, unassigned) [Example 11-1] | 75 to 250 | 1 to 40 | 75 to 250 | 250 to 50000 | 0.1 to 1 | 250 to 500 | 75 to 250 | 1 to 40 | 75 to 250 |  | 
7 | O=C([C@H](O)c1ccc2c(c1)CNCC2)N1CC2=C(C1)CN(S(=O)(=O)c1ccc(OC(F)F)cc1)C2 (single isomer, unassigned) [Example 11-2] | 75 to 250 | ≤ 0.1 | 250 to 500 | 250 to 50000 | ≤ 0.1 | 250 to 500 | 75 to 250 | 0.1 to 1 | 75 to 250 |  | 
8 | COc1cccc(CNC(=O)N2CC3=C(C2)CN(S(=O)(=O)c2ccc4nsnc4c2)C3)c1 [Example 20-25, 5-(2,1,3-Benzothiadiazole-5-sulfonyl)-N-[(3-methoxyphenyl)methyl]-1H,2H,3H,4H,5H,6H-pyrrolo-[3,4-c]pyrrole-2-carboxamide] |  |  |  | 75 to 250 | 1 to 40 | 75 to 250 | 75 to 250 | 0.1 to 1 | 75 to 250 |  | 
9 | COc1ccccc1CNC(=O)N1CC2=C(C1)CN(S(=O)(=O)c1ccc3nsnc3c1)C2 [Example 20-27, 5-(2,1,3-Benzothiadiazole-5-sulfonyl)-N-[(2-methoxyphenyl)methyl]-1H,2H,3H,4H,5H,6H-pyrrolo[3,4-c]pyrrole-2-carboxamide] |  |  |  | 75 to 250 | 1 to 40 | 250 to 500 | 75 to 250 | 1 to 40 | 75 to 250 |  | 
10 | O=C(NCc1ccc(F)cc1)N1CC2=C(C1)CN(S(=O)(=O)c1ccc3nsnc3c1)C2 [Example 20-28, 5-(2,1,3-Benzothiadiazole-5-sulfonyl)-N-[(4-fluorophenyl)methyl]-1H,2H,3H,4H,5H,6H-pyrrolo[3,4-c]pyrrole-2-carboxamide] |  |  |  | 75 to 250 | 1 to 40 | 75 to 250 | 75 to 250 | 1 to 40 | 75 to 250 |  | 

The remaining lines, values ahead:

Row | activation at 1.54 µM [1] [%] | AC50 [1] [µM] | Emax [1] [%] | activation at 1.54 µM [2] [%] | AC50 [2, 4] [µM] | Emax [2] [%] | activation at 1.54 µM [3] [%] | AC50 [3, 5] [µM] | Emax [3] [%] | AC50 ([2]; gmean, read-out: D - AC50 LUM KGP woFBP AC50 μM gmean) [µM] | AC50 ([3]; gmean, read-out: A - AC50 LUM KGP FBP AC50 μM gmean) [µM] | SMILES
11 |  |  |  | 75 to 250 | 1 to 40 | 75 to 250 | 75 to 250 | 1 to 40 | 75 to 250 |  |  | O=C(NCc1ccc(F)cc1)N1CC2=C(C1)CN(S(=O)(=O)c1cccc3cnccc13)C2 [Example 20-41, N-[(4-fluorophenyl)methyl]-5-(isoquinoline-5-sulfonyl)-1H,2H,3H,4H,5H,6H-pyrrolo[3,4-c]pyrrole-2-carboxamide]
12 |  |  |  | 250 to 50000 | ≤ 0.1 | 250 to 500 | 75 to 250 | ≤ 0.1 | 75 to 250 |  |  | Cc1cc(CNC(=O)N2CC3=C(C2)CN(S(=O)(=O)c2ccc4ncsc4c2)C3)no1 [Example 21-8, 5-(1,3-Benzothiazole-6-sulfonyl)-N-[(5-methyl-1,2-oxazol-3-yl)methyl]-1H,2H,3H,4H,5H,6H-pyrrolo[3,4-c]pyrrole-2-carboxamide]
13 |  |  |  | 75 to 250 | 0.1 to 1 | 250 to 500 | 75 to 250 | 0.1 to 1 | 75 to 250 |  |  | COCCNC(=O)N1CC2=C(C1)CN(S(=O)(=O)c1ccc3c(c1)N(C)CCO3)C2 [Example 21-24]
14 |  |  |  | 75 to 250 | 0.1 to 1 | 75 to 250 | 75 to 250 | 1 to 40 | 75 to 250 |  |  | CN1CCOc2ccc(S(=O)(=O)N3CC4=C(CN(C(=O)NCc5ccc(F)cc5)C4)C3)cc21 [Example 21-26, N-[(4-fluorophenyl)methyl]-5-[(4-methyl-3,4-dihydro-2H-1,4-benzoxazin-6-yl)sulfonyl]-1H,2H,3H,4H,5H,6H-pyrrolo[3,4-c]pyrrole-2-carboxamide]
15 |  |  |  | 75 to 250 | 1 to 40 | 250 to 500 | 75 to 250 | 1 to 40 | 75 to 250 |  |  | Cc1cc(CNC(=O)N2CC3=C(C2)CN(S(=O)(=O)c2cccnc2)C3)no1 [Example 21-38, N-[(5-methyl-1,2-oxazol-3-yl)methyl]-5-(pyridine-3-sulfonyl)-1H,2H,3H,4H,5H,6H-pyrrolo[3,4-c]pyrrole-2-carboxamide]
16 |  |  |  |  |  |  |  |  |  | 1 to 40 | 1 to 40 | C[C@@H](C(=O)N1CC2=C(C1)CN(S(=O)(=O)c1c[nH]c3c(Cl)nccc13)C2)c1ccccc1 [Example 25]
